Where a name gives a salt, the structure may show the parent alone.
Key:
Maus = test: Writhing test according to Huntingdon (analgesia); assay type: in vivo; conditions: Mus musculus, oral
Procedure: (§1) Sobewirkt z.B. das Hydrochlorid von 2,2-Dimethyl-4- (2' hydroxy-3'-tert.butylaminopropoxy)-1,3-benzodioxol am wachen Hund eine 40-fach intensivere Abschwächung der positiv chronotropen Isoprenalinwirkung als der bekannte B-Blocker Atenolol in gleicher Dosierung und ergibt im Writhing-Test nach Huntingdon mit einer ED 50 von nur 8 mg/kg (Maus, oral) eine gute analgetische Wirkung. Vergleicht man diese im Writhina-Test mit der von bekannten Analgetika, dann zeigt sich die Überlegenheit des neuen Wirkstoffes: […]

ß-Adrenozeptor = test: Attenuation of the positive chronotropic effect of isoprenaline in the conscious dog; assay type: in vivo, Hund; conditions: intensity relative to the known ß-blocker Atenolol at the same dose
Procedure: as §1

SMILES	ED50 (Maus) [mg/kg]	Abschwächung der positiv chronotropen Isoprenalinwirkung (ß-Adrenozeptor)
CCOC(=O)C1(c2ccccc2)CCN(C)CC1 [Pethidin-Hydrochlorid]	13.3	
NC(=O)c1ccccc1OCC(=O)O [Natriumsalz der Salicylamid-O-essigsäure]	11.5	
CC(C)(C)NCC(O)COc1cccc2c1OC(C)(C)O2 (centres unmarked) [2,2-Dimethyl-4-(2'-hydroxy-3'-tert.butylamino--propoxy)-1,3-benzodioxol]	8	40 -fach
Cc1c(N(C)CS(=O)(=O)O)c(=O)n(-c2ccccc2)n1C [Metamizol-Natrium]	10.6	

Source: patent publication EP0095454A2, “Nuclens-substituted pyrogallol derivatives” (Gerot-Pharmazeutika Gesellschaft m.b.H., priority 1982, dated 1983)
